Test: Compound was tested for inhibitory activity against fucosyltransferase

OC[C@@H]1NC[C@@H](O)[C@@H](O)[C@@H]1O[C@@H]1O[C@@H](CO)[C@H](O)[C@H](O)[C@@H]1O
IC50: 40 mM

— BindingDB's records for doi:10.1016/S0960-894X(00)80270-X (1991)
